{
  "source": "patent US20220331267A1",
  "about": "“METHODS AND COMPOSITIONS FOR TREATMENT OF DEMYELINATING DISORDERS” (Rush University Medical Center, priority 2019, published 2022)",
  "key": {"GFP-PPARβ LBD": {"biological_target": "T1, GFP-PPARβ LBD (Homo sapiens, UniProt Q03181)", "T1 construct": "incubated with recombinant GFP-PPARα LBD and GFP-PPARβ LBD proteins", "T1 sequence (Q03181 211-439 limits assumed)": "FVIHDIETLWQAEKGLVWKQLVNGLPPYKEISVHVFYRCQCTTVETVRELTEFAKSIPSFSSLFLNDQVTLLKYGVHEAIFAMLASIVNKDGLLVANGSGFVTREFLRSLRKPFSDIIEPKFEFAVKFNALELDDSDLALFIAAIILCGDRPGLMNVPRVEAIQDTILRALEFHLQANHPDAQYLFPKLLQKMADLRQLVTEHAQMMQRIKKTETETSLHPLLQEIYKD", "test": "GFP-affinity purification of cerebellar lysate with GFP-PPARβ LBD, then EI-GCMS", "assay_type": "binding", "details": "PPARβ pulled-down cerebellar lysate", "experimental": "To test that, we performed a GFP-based affinity purification procedure (25,29) in which cerebellar lysate of wild-type cerebellum was incubated with recombinant GFP-PPARα LBD and GFP-PPARβ LBD proteins, then passed through GFP column, eluted, fractionated with chloroform-methanol procedure, and finally analyzed for small molecules in the chloroform fraction with electron ionization gas chromatography (EI-GCMS) method as described elsewhere (29). […] A part of the eluted fraction was electrophoresed and stained with Coomassie blue to nullify the loading error of GFP-PPARαLBD and GFP-PPARβ LBD used for affinity purification.\nGCMS analyses: Ligand detection: A JEOL GCMate II (JEOL USA, Peabody Mass.) mass spectrometer was used in ligand detection experiments. The gas chromatograph (GC) was an Agilent 6890Plus (Wilmington Del.) equipped with a G1513A auto-injector with 100 vial sample tray connected to a G1512A controller. The gas chromatography column was a fused silica capillary column with a nonpolar 5% phenyl 95% dimethylpolysiloxane phase (Agilent HP-5 ms), 30 meters long, 0.25 mm internal diameter, 0.25 μm film thickness. The carrier gas was Helium (99.9995% Research Grade) run through a STG triple filter (Restek Corp.) at a constant flow rate 1.1 mL/min. […]"}, "GFP-PPARα LBD": {"biological_target": "T2, GFP-PPARα LBD (Homo sapiens, UniProt Q07869)", "T2 construct": "incubated with recombinant GFP-PPARα LBD and GFP-PPARβ LBD proteins", "T2 sequence (Q07869 239-466 limits assumed)": "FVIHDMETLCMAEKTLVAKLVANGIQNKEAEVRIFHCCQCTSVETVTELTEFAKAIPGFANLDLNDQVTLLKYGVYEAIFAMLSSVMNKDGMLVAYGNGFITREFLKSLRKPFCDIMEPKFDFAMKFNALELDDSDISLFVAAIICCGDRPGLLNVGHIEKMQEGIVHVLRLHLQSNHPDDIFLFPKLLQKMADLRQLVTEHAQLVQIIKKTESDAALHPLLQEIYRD", "test": "GFP-affinity purification of cerebellar lysate with GFP-PPARα LBD, then EI-GCMS", "assay_type": "binding", "details": "PPARα pulled-down cerebellar lysate", "description": "Identification of unique cerebellar ligands of PPARβ: PPARβ regulates the expression of myelin genes in vitro in cultured oligodendrocytes (19). However, it is not known if PPARβ regulates the expression of these genes in cerebellum, one of the heavily myelinated regions of the brain. To test the expression of myelin proteins, first we performed dual immunofluorescence analyses of myelin marker MBP together with PPARβ in the cerebellar tissue of wild-type (n=3), Pparb-null (n=3) and Ppara-null (n=3) mice. […] Moreover, DAB immunostaining of MBP and immunoblot analyses of other myelin genes including PLP and MOG have corroborated that PPARβ indeed is involved in the expression of myelin genes in cerebellum. […] To test that, we performed a GFP-based affinity purification procedure (25,29) in which cerebellar lysate of wild-type cerebellum was incubated with recombinant GFP-PPARα LBD and GFP-PPARβ LBD proteins, then passed through GFP column, eluted, fractionated with chloroform-methanol procedure, and finally analyzed for small molecules in the chloroform fraction with electron ionization gas chromatography (EI-GCMS) method as described elsewhere (29). […] Accordingly, we detected two matching bands of both GFP-PPARαLBD and GFP-PPARβLBD, both having mol. wt. of 64 kDa, negating the possibility of unequal loading of sample in MS column. […]"}, "GFPflpparβ": {"biological_target": "T3, GFPflpparβ (Mus musculus, UniProt P35396)", "T3 construct": "host or cells: Pparb-null mouse primary OPCs (lentiviral transduction)", "T3 sequence (P35396 1-440)": "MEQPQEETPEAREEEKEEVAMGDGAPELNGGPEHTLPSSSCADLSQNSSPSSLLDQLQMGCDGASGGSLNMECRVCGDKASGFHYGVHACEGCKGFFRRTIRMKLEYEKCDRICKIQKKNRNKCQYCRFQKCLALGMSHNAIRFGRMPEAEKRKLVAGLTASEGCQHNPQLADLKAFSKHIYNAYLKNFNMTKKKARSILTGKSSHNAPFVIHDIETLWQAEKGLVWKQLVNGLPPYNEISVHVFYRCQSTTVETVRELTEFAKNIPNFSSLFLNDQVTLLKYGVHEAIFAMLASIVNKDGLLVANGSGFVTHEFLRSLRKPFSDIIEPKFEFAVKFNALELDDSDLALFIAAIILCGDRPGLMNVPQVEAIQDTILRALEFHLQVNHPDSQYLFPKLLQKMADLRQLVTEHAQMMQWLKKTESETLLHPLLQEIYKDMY", "test": "GFP-affinity purification and GCMS of Pparb-null OPCs transduced with GFPflpparβ", "assay_type": "binding", "description": "Therefore, next, we wanted to confirm these interactions in vitro in a cell-bound system. To test that, Pparb-null mouse primary OPCs were isolated from P1 murine neonates, infected with viral particles of GFP, GFPflpparb, GFPV304Mpparb, GFPH412Lpparb constructs for 48 hrs. After that, OPCs were homogenized, passed through the GFP-affinity column, eluted, fractionated with chloroform-methanol, and finally analyzed with GCMS to quantify these ligands. […] Throughout these analyses, we used dodecane as an internal standard.\nSample preparation: After treatment, mouse primary OPCs were homogenized in ice-cold nondetergent hypotonic buffer [10 mM HEPES (pH 7.9), 1.5 mM MgCl2, 10 mM KCl, 100 mM DTT, protease and phosphatase inhibitor cocktail]. After 10 min of additional incubation in the hypotonic buffer, the homogenate was centrifuged at 8,000 g at 4° C. for 10 min. […] The organic phase was collected, evaporated in the speedvac, reconstituted with 30 μL chloroform, and finally analyzed with GCMS. […] After that, the eluate was collected from the column with 5M NaCl solution, concentrated with PD-10 desalting column and analyzed for GCMS."}, "mouse primary OPCs [1]": {"tested_on": "mouse primary OPCs", "test": "Double immunofluorescence (NG2/MBP, A2B5/PLP): differentiation of OPCs to oligodendrocytes", "assay_type": "cell-based", "details": "1 μM DBB, 0.5 μM DBP, 0.5 μM MePA, 24 hrs", "protocol": "(§1) FIG. 1A-1T. The role of DBB, DBP and MePA in the differentiation of OPC into oligodendrocytes and myelination. […] Briefly, mouse primary OPCs were treated with different concentrations of molecules for 1 hr, lysed and measured for DNA probe binding activity of PPARβ. […] Benzene was included as negative control. **p<0.01 vs. control for PLP, MOG, MBP, and CNPase. Results are mean±SD of three independent experiments. (FIG. 1G) Immunoblot followed by (FIG. 1H) relative densitometric analyses of PLP and MBP in mouse primary OPCs treated with increasing concentrations of DBB for 18 hrs. Band intensity was measured with image J software and then normalized with respective actin band. *p<0.05 (=0.041) vs. PLP control and *p<0.05 (=0.026) vs. MBP control. […] (N) Mean fluorescence intensity (MFI) of MBP was measured from total 15 cells per group with three cells from 5 different images per group. […] (FIG. 1Q) Mean fluorescence intensity (MFI) of MBP was measured from total 15 cells per group with three cells from 5 different images per group. […] (FIG. 1T) Numbers of MBP-ir cells of different treatment groups were counted per sq.mm of nanofiber matrix and presented as a histogram. […]\nDBB, DBP and MePA stimulate the differentiation of OPC to oligodendrocytes and promote myelination. […] After that, cells were lysed and assessed for PPRE-luciferase activity. […]"}, "mouse primary OPCs [2]": {"tested_on": "mouse primary OPCs", "test": "Myelination of OPCs on polycaprolactone nanofiber matrix (MBP staining)", "assay_type": "cell-based", "details": "1 μM DBB, 0.5 μM DBP, 0.5 μM MePA", "protocol": "as §1\nThe essential role of PPARβ in DBB-, DBP- and MePa-mediated differentiation of OPCs to oligodendrocytes and myelination. […] After that, PPRE-luciferase activity was assessed. […]"}, "PPARβ LBD": {"biological_target": "T4, PPARβ LBD (Homo sapiens, UniProt Q03181)", "T4 sequence (Q03181 211-439 limits assumed)": "T1 sequence (Q03181 211-439 limits assumed)", "test": "TR-FRET (Lanthascreen PPAR-β coactivator assay)", "experimental": "The shift of each melting curve was calculated by subtracting the melting temperature (Tm) of PPARβ protein+ligand with Tm of PPARβ protein alone. Any shift (ΔTm) with more than 2° C. would be considered as significant.\nTR-FRET analysis: TR-FRET assay was performed using Lanthascreen TR-FRET PPAR-β coactivator assay kit (Cat #PV4685). […] The entire reaction was set up in corning 96 well-plate followed by incubation in a dark place for 30 mins, and then analyzed “Victor X5” machine equipped with dichroic mirror. The excitation wavelength and emission wavelength were set at 340 nm and 540 nm wavelength respectively."}, "[3]": {"details": "adjusted to internal standard peak"}},
  "data": [
    {"smiles": "CCCCCCCCCCCCCCCC(=O)OC", "note": "[MePA, Methyl palmitate]", "values": [
      {"measurement": "% RA", "setting": "GFP-PPARβ LBD", "value": 40.678, "unit": "%"},
      {"measurement": "Relative abundance", "setting": "GFP-PPARβ LBD; [3]", "value": 0.4068},
      {"measurement": "% RA", "setting": "GFP-PPARα LBD", "value": 0, "unit": "%"},
      {"measurement": "Relative abundance", "setting": "GFP-PPARα LBD; [3]", "value": 0},
      {"measurement": "Adjusted Peak Area", "setting": "GFPflpparβ; ligand peak area divided by dodecane peak", "value": 0.0108},
      {"measurement": "RA", "setting": "GFPflpparβ; relative abundance", "value": 1},
      {"measurement": "differentiation of OPCs into oligodendrocytes", "setting": "mouse primary OPCs [1]", "value": "stimulate the differentiation of OPCs into oligodendrocytes"},
      {"measurement": "MBP-ir cell bodies per sq.mm of nanofiber matrix (maturation of oligodendrocytes)", "setting": "mouse primary OPCs [2]", "value": "stimulated the maturation of oligodendrocytes"},
      {"measurement": "myelin formation on nanofibers", "setting": "mouse primary OPCs [2]; 24 hrs", "value": "promote myelin formation"},
      {"measurement": "EC50", "setting": "PPARβ LBD", "value": 72, "unit": "nM"}
    ]}
  ]
}
